biological target: T1, IGF-1R Ba/F3 (Homo sapiens, UniProt P08069); assay: Ba/F3 Cell Viability Inhibition Assay (IGF-1R Ba/F3); type: cell-based, murine; details: Tel-TK transformed Ba/F3 cells, 48 hours, Britelite luminescence
T1 construct: fused on or other part: TEL- (or BCR-) IGF-1R in Ba/F3: the kinase part holds the site
How it was run: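 A 48 h compound treatment at 37 °C (3750 cells/well) was followed by Britelite luminescence to measure viability. Cells were Ba/F3 pro-B cells, IL-3-independent via TEL-fused IGF-1R kinase transduction. A logistic fit gave IC50 as 50% viability relative to DMSO control.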

T1 sequence (P08069 999-1274 limits assumed): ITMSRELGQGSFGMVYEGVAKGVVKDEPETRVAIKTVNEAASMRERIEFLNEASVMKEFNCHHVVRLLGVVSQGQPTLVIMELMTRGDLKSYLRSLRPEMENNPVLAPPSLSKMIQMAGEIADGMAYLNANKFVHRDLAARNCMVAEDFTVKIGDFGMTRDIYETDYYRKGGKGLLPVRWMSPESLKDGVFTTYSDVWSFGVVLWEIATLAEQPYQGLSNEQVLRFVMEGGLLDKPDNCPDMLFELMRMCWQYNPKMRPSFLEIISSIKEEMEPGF

SMILES	IC50
CNC(=O)CN1CCC[C@H](c2cc(C)c(Nc3ncc(Cl)c(Nc4cc(C)[nH]n4)n3)cc2C)C1 (single isomer, unassigned) [Compound 207]	26 nM
CNC(=O)C(C)N1CCC(c2cc(C)c(Nc3ncc(Cl)c(Nc4cc(C)[nH]n4)n3)cc2C)CC1 (stereo not shown) [Compound 52, 2-(4-(4-(5-chloro-4-(5-methyl-1H-pyrazol-3-ylamino)pyrimidin-2-ylamino)-2,5-dimethylphenyl)piperidin-1-yl)-N-methylpropanamide]	6 nM
CNC(=O)[C@H](C)N1CCC(c2cc(F)c(Nc3ncc(Cl)c(Nc4cc(C)[nH]n4)n3)cc2C)CC1 [Compound 164, (S)-2-(4-(4-(5-chloro-4-(5-methyl-1H-pyrazol-3-ylamino)pyrimidin-2-ylamino)-5-fluoro-2-methylphenyl)piperidin-1-yl)-N-methylpropanamide]	33 nM
Cc1cc(Nc2nc(Nc3cc(C)c(C4CCN([C@@H](C)C(N)=O)CC4)cc3C)ncc2Cl)n[nH]1 [Compound 166, (S)-2-(4-(4-(5-chloro-4-(5-methyl-1H-pyrazol-3-ylamino)pyrimidin-2-ylamino)-2,5-dimethylphenyl)piperidin-1-yl)propanamide]	7 nM
Cc1cc(Nc2nc(Nc3cc(C)c(C4CCN(Cc5ccnnc5)CC4)cc3C)ncc2Cl)n[nH]1 [Compound 21, 5-chloro-N2-(2,5-dimethyl-4-(1-(pyridazin-4-ylmethyl)piperidin-4-yl)phenyl)-N4-(5-methyl-1H-pyrazol-3-yl)pyrimidine-2,4-diamine]	2 nM
Cc1cc(Nc2nc(Nc3cc(C)c(C4CCN(CCCS(=O)(=O)N5CCC5)CC4)cc3C)ncc2Cl)n[nH]1 [Compound 214, N^2-(4-(1-(3-(azetidin-1-ylsulfonyl)propyl)piperidin-4-yl)-2,5-dimethylphenyl)-5-chloro-N^4-(5-methyl-1H-pyrazol-3-yl)pyrimidine-2,4-diamine]	40 nM
Cc1cc(Nc2nc(Nc3cc(C)c(C4CCN(CCC(N)=O)CC4)cc3F)ncc2Cl)n[nH]1 [Compound 248, 3-(4-(4-(5-chloro-4-(5-methyl-1H-pyrazol-3-ylamino)pyrimidin-2-ylamino)-5-fluoro-2-methylphenyl)piperidin-1-yl)propanamide]	140 nM
Cc1cc(Nc2nc(Nc3cc(C)c(C4CCN(C(C)C)CC4)cc3C)ncc2Cl)n[nH]1 [Compound 12, 5-chloro-N2-(4-(1-isopropylpiperidin-4-yl)-2,5-dimethylphenyl)-N4-(5-methyl-1H-pyrazol-3-yl)pyrimidine-2,4-diamine]	10 nM
Cc1cc(Nc2nc(Nc3cc(C)c(C4CCN(C(=O)[C@]5(C)CCCN5)CC4)cc3F)ncc2Cl)n[nH]1 [Compound 138, (S)-(4-(4-(5-chloro-4-(5-methyl-1H-pyrazol-3-ylamino)pyrimidin-2-ylamino)-5-fluoro-2-methylphenyl)piperidin-1-yl)(2-methylpyrrolidin-2-yl)methanone]	91 nM
Cc1cc(Nc2nc(Nc3cc(C)c(C4CCN(CC5(C#N)CC5)CC4)cc3C)ncc2Cl)n[nH]1 [Compound 198, 1-((4-(4-(5-chloro-4-(5-methyl-1H-pyrazol-3-ylamino)pyrimidin-2-ylamino)-2,5-dimethylphenyl)piperidin-1-yl)methyl)cyclopropanecarbonitrile]	22 nM
Cc1cc(Nc2nc(Nc3cc(C)c(C4CCN(S(C)(=O)=O)CC4)cc3F)ncc2Cl)n[nH]1 [Compound 62, 5-Chloro-N2-(2-fluoro-5-methyl-4-(1-(methylsulfonyl)piperidin-4-yl)phenyl)-N4-(5-methyl-1H-pyrazol-3-yl)pyrimidine-2,4-diamine]	5 nM
Cc1cc(Nc2nc(Nc3cc(C)c(C4CCN(S(=O)(=O)CCCN5CCCC5)CC4)cc3C)ncc2Cl)n[nH]1 [Compound 233, 5-chloro-N2-(2,5-dimethyl-4-(1-(3-(pyrrolidin-l-yl)propylsulfonyl)piperidin-4-yl)phenyl)-N4-(5-methyl-1H-pyrazol-3-yl)pyrimidine-2,4-diamine]	54 nM
Cc1cc(Nc2nc(Nc3cc(C)c(C4CCN(Cc5nc(C(C)C)no5)CC4)cc3C)ncc2Cl)n[nH]1 [Compound 260, 5-chloro-N2-(4-(1-((3-isopropyl-1,2,4-oxadiazol-5-yl)methyl)piperidin-4-yl)-2,5-dimethylphenyl)-N4-(5-methyl-1H-pyrazol-3-yl)pyrimidine-2,4-diamine]	18 nM
Cc1cc(Nc2nc(Nc3cc(C)c(C4CCN(C(=O)c5cnn(C)c5C(F)(F)F)CC4)cc3F)ncc2Cl)n[nH]1 [Compound 130, (4-(4-(5-chloro-4-(5-methyl-1H-pyrazol-3-ylamino)pyrimidin-2-ylamino)-5-fluoro-2-methylphenyl)piperidin-1-yl)(1-methyl-5-(trifluoromethyl)-1H-pyrazol-4-yl)methanone]	61 nM
Cc1cc(Nc2nc(Nc3cc(C)c(C4CCN(C(=O)OC(C)C)CC4)cc3F)ncc2Cl)n[nH]1 [Compound 68, isopropyl 4-(4-(5-chloro-4-(5-methyl-1H-pyrazol-3-ylamino)pyrimidin-2-ylamino)-5-fluoro-2-methylphenyl)piperidine-1-carboxylate]	80 nM
Cc1cc(Nc2nc(Nc3cc(C(F)(F)F)c(C4CCN(CC(N)=O)CC4)cc3C)ncc2Cl)n[nH]1 [Compound 47, 2-(4-(4-(5-chloro-4-(5-methyl-1H-pyrazol-3-ylamino)pyrimidin-2-ylamino)-5-methyl-2-(trifluoromethyl)phenyl)piperidin-1-yl)acetamide]	22 nM
Cc1cc(Nc2nc(Nc3cc(C)c(C4CCN(CCO)CC4)cc3C)ncc2Cl)n[nH]1 [Compound 23, 2-(4-(4-(5-chloro-4-(5-methyl-1H-pyrazol-3-ylamino)pyrimidin-2-ylamino)-2,5-dimethylphenyl)piperidin-1-yl)ethanol]	6 nM
CCN1CCC(c2cc(C)c(Nc3ncc(Cl)c(Nc4cc(C)[nH]n4)n3)cc2C(F)(F)F)CC1 [Compound 241, 5-chloro-N2-(4-(1-ethylpiperidin-4-yl)-2-methyl-5-(trifluoromethyl)phenyl)-N4-(5-methyl-1H-pyrazol-3-yl)pyrimidine-2,4-diamine]	68 nM
Cc1cc(Nc2nc(Nc3cc(Cl)c(C4CCN(C5CCS(=O)(=O)C5)CC4)cc3C)ncc2Cl)n[nH]1 (stereo not shown) [Compound 144, 5-chloro-N^2-(2-methyl-5-chloro-4-(1-(tetrahydro-1,1-dioxido-3-thienyl)piperidin-4-yl)phenyl)-N^4-(5-methyl-1H-pyrazol-3-yl)pyrimidine-2,4-diamine]	7 nM
Cc1cc(Nc2nc(Nc3cc(C)c(C4CCN(C)CC4)cc3F)ncc2Cl)n[nH]1 [Compound 1, 5-Chloro-N2-(2-fluoro-5-methyl-4-(1-methylpiperidin-4-yl)phenyl)-N4-(5-methyl-1H-pyrazol-3-yl)pyrimidine-2,4-diamine]	11 nM
Cc1cc(Nc2nc(Nc3cc(C)c(C4CCN(C(=O)CN(C)C)CC4)cc3F)ncc2Cl)n[nH]1 [Compound 73, 1-(4-(4-(5-chloro-4-(5-methyl-1H-pyrazol-3-ylamino)pyrimidin-2-ylamino)-5-fluoro-2-methylphenyl)piperidin-1-yl)-2-(dimethylamino)ethanone]	19 nM
Cc1cc(Nc2nc(Nc3cc(C)c(C4CCN(CC(N)=O)CC4)cc3C)ncc2Cl)n[nH]1 [Compound 37, 2-(4-(4-(5-chloro-4-(5-methyl-1H-pyrazol-3-ylamino)pyrimidin-2-ylamino)-2,5-dimethylphenyl)piperidin-1-yl)acetamide]	13 nM
Cc1cc(Nc2nc(Nc3cc(C)c(C4CCN(Cc5cncnc5)CC4)cc3F)ncc2Cl)n[nH]1 [Compound 314, 5-Chloro-N^2-(2-fluoro-5-methyl-4-(1-(pyrimidin-5-ylmethyl)piperidin-4-yl)phenyl)-N^4-(5-methyl-1H-pyrazol-3-yl)pyrimidine-2,4-diamine]	37 nM
CCNC1(C(=O)N2CCC(c3cc(C)c(Nc4ncc(Cl)c(Nc5cc(C)[nH]n5)n4)cc3C)CC2)CC1 [Compound 170, (4-(4-(5-chloro-4-(5-methyl-1H-pyrazol-3-ylamino)pyrimidin-2-ylamino)-2,5-dimethylphenyl)piperidin-1-yl)(1-(ethylamino)cyclopropyl)methanone]	3 nM
Cc1cc(Nc2nc(Nc3cc(C)c([C@@H]4COC(=O)N4)cc3C)ncc2Cl)n[nH]1 [Compound 231, (R)-4-(4-(5-chloro-4-(5-methyl-1H-pyrazol-3-ylamino)pyrimidin-2-ylamino)-2,5-dimethylphenyl)oxazolidin-2-one]	50 nM

Reference: patent US8859574B2 (IRM LLC, priority 2008, dated 2014)
